Measured values: patent publication US9102674B2, “Substituted naphthyridine and quinoline compounds as MAO inhibitors” (DART NEUROSCIENCE (CAYMAN) LTD., priority 2013, dated 2015)

Target: T1, Human recombinant MAO-B (Homo sapiens, UniProt P27338)
T1 construct: host or cells: insect cells
T1 sequence (P27338 1-520): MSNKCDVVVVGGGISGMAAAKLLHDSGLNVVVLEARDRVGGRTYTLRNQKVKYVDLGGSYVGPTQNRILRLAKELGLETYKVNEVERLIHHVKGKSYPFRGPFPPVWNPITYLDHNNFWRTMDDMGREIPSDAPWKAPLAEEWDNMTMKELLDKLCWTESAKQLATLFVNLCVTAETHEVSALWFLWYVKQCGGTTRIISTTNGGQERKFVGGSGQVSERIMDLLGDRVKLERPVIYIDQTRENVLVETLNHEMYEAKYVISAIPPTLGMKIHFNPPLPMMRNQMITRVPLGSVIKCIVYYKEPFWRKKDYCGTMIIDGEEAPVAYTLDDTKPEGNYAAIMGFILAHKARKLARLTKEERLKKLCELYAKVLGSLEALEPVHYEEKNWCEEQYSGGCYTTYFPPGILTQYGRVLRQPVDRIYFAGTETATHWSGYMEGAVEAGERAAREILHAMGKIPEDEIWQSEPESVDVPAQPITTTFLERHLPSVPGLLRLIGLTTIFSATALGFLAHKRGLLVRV
Assay: MAO-B enzymatic assay (fluorometric, kynuramine)
Format: biochemical
Conditions: human recombinant MAO-B expressed in insect cells; kynuramine substrate; values given as bins; read-out: MAO-B (pEC50) (converted)
Description: The MAO enzymatic assay was performed according to the fluorometric method described by Matsumoto and colleagues (Matsumoto et al., Clin. Biochem. 1985, 18, 126-129) with the following modifications. Human recombinant MAO-A and MAO-B expressed in insect cells were used. For both assays, test compound and/or vehicle were preincubated with purified enzyme in phosphate buffer pH 7.4 for 15 minutes at 37° C. The reaction was initiated by addition of […] kynuramine. Following a 60 minute incubation period, the reaction was terminated by the addition of 6 N NaOH. The amount of 4-hydroxyquinoline that formed was determined by spectrofluorimetrically at 325 nm/465 nm.
Results were converted to percent inhibition, and the EC50 (M) for each reaction was determined using the XLfit program from IDBS (ID Business Solutions Ltd., 2 Occam Court, Surrey Research Park, Guildford, Surrey, GU2 7QB UK). The EC50 represents the concentration of a compound where 50% of its maximal effect is observed. The pEC50 is defined as the negative logarithm of the EC50; a higher pEC50 value therefore corresponds to higher potency in the assay.
Representative compounds of the invention were evaluated in the MAO-B enzymatic assay. Typically, the compounds of the invention show MAO-B inhibitory properties at a concentration of 0.1 to 10 μM, typically at 5-100%.
As depicted in the following Table, these inhibitory properties were mirrored by pEC50 values ranging from 5 (meaning 10^−5 M or 10 μM) to greater than 7 (meaning less than 10^−7 M or 0.1 μM).

Row | Structure (SMILES) | EC50 [nM]
1 | N#CCc1cnc2cc(OCc3ccc(F)c(F)c3)cnc2c1 [Example 74, 2-{7-[(3,4-Difluorophenyl)methoxy]-1,5-naphthyridin-3-yl}acetonitrile] | < 100
2 | CC(C)(O)c1cnc2cc(OCc3cccc(F)c3)cnc2c1 [Example 76, 2-{7-[(3-Fluorophenyl)methoxy]-1,5-naphthyridin-3-yl}propan-2-ol] | < 100
3 | CCOC(=O)c1cnc2cc(OCc3cccc(Cl)c3)ccc2c1 [Example 3, Ethyl 7-[(3-chlorophenyl)methoxy]quinoline-3-carboxylate] | < 100
4 | NC(=O)Cc1cnc2cc(OCc3ccnc(C(F)(F)F)c3)ccc2c1 [Example 62, 2-(7-((2-(Trifluoromethyl)pyridin-4-yl)methoxy)quinolin-3-yl)acetamide] | < 100
5 | NC(=O)CC1Cc2ccc(OCc3cccc(Cl)c3)cc2NC1=O (stereo not shown) [Example 82, 2-(7-((3-Chlorobenzyl)oxy)-2-oxo-1,2,3,4-tetrahydroquinolin-3-yl)acetamide] | < 100
6 | CC(C)(F)c1cnc2cc(OCc3ccc(F)cc3)cnc2c1 [Example 75, 3-[(4-Fluorophenyl)methoxy]-7-(2-fluoropropan-2-yl)-1,5-naphthyridine] | < 100
7 | CCOC(=O)Cc1cnc2cc(OCc3ccc(F)cc3)ccc2c1 [Example 53, Ethyl 2-(7-((4-fluorobenzyl)oxy)quinolin-3-yl)acetate] | 100 to 1000
8 | CCOC(=O)c1cnc2cc(OCCc3cccc(Cl)c3)ccc2c1 [Example 25, Ethyl 7-(3-chlorophenethoxy)quinoline-3-carboxylate] | 100 to 1000
9 | NC(=O)Cc1cc2ccc(OCc3cccc(Cl)c3)cc2[nH]c1=O [Example 83, 2-(7-((3-Chlorobenzyl)oxy)-2-oxo-1,2-dihydroquinolin-3-yl)acetamide] | < 100
10 | CC(C)(F)c1cnc2cc(OCc3ccc(F)cc3)ccc2c1 [Example 41, 7-((4-Fluorobenzyl)oxy)-3-(2-fluoropropan-2-yl)quinoline] | < 100
11 | CCOC(=O)c1cnc2cc(OCc3cccc(OC)c3)ccc2c1 [Example 9, Ethyl 7-((3-methoxybenzyl)oxy)quinoline-3-carboxylate] | < 100
12 | Cc1nc2cc(OCc3cccc(F)c3)ccc2cc1C(C)(C)O [Example 34, 2-(7-((3-Fluorobenzyl)oxy)-2-methylquinolin-3-yl)propan-2-ol] | < 100
13 | OCc1cnc2cc(OCc3cc(F)c(F)c(F)c3)ccc2c1 [Example 37, (7-((3,4,5-Trifluorobenzyl)oxy)quinolin-3-yl)methanol] | < 100
14 | NC(=O)Cc1cnc2cc(OCc3ccc(F)cc3)ccc2c1 [Example 58, 2-(7-((4-fluorobenzyl)oxy)quinolin-3-yl)acetamide] | < 100
15 | OCc1cnc2cc(OCc3cc(F)cc(F)c3)ccc2c1 [Example 36, (7-((3,5-Difluorobenzyl)oxy)quinolin-3-yl)methanol] | < 100
16 | CC(C)(CO)c1cnc2cc(OCc3cccc(Cl)c3)ccc2c1 [Example 60, 2-(7-((3-Chlorobenzyl)oxy)quinolin-3-yl)-2-methylpropan-1-ol] | < 100
17 | CC(C)(O)Cc1cnc2cc(OCc3cccc(Cl)c3)ccc2c1 [Example 63, 1-(7-((3-Chlorobenzyl)oxy)quinolin-3-yl)-2-methylpropan-2-ol] | 1000 to 10000
18 | CNC(=O)c1cnc2cc(OCc3cccc(Cl)c3)cnc2c1 [Example 72, 7-[(3-Chlorophenyl)methoxy]-N-methyl-1,5-naphthyridine-3-carboxamide] | < 100
19 | CCOC(=O)c1cc2ccc(OCc3ccc(F)c(Cl)c3)cc2nc1C [Example 23, Ethyl 7-((3-chloro-4-fluorobenzyl)oxy)-2-methylquinoline-3-carboxylate] | < 100
20 | CCOC(=O)c1cnc2cc(OCc3ccc(C)cc3)ccc2c1 [Example 8, Ethyl 7-((4-methylbenzyl)oxy)quinoline-3-carboxylate] | 100 to 1000
21 | CCOC(=O)c1cnc2cc(OCc3cc(F)c(F)c(F)c3)ccc2c1 [Example 16, Ethyl 7-((3,4,5-trifluorobenzyl)oxy)quinoline-3-carboxylate] | < 100
22 | CCOC(=O)c1cnc2cc(OCc3ccc(F)c(C(F)(F)F)c3)ccc2c1 [Example 12, Ethyl 7-((4-fluoro-3-(trifluoromethyl)benzyl)oxy)quinoline-3-carboxylate] | < 100

Row | Structure (SMILES) | EC50 [nM]
23 | NC(=O)c1cnc2cc(OCc3cccc(Cl)c3)ccc2c1 [Example 64, 7-((3-Chlorobenzyl)oxy)quinoline-3-carboxamide] | < 100
24 | CCOC(=O)C(C)(C)c1cnc2cc(OCc3cccc(Cl)c3)ccc2c1 [Example 59, Ethyl 2-(7-((3-chlorobenzyl)oxy)quinolin-3-yl)-2-methylpropanoate] | 100 to 1000
25 | Cc1nc2cc(OCc3ccc(F)cc3)ccc2cc1C(C)(C)O [Example 31, 2-(7-((4-Fluorobenzyl)oxy)-2-methylquinolin-3-yl)propan-2-ol] | < 100
26 | NC(=O)Cc1cnc2cc(OCc3cccc(Cl)c3)ccc2c1 [Example 55, 2-(7-((3-Chlorobenzyl)oxy)quinolin-3-yl)acetamide] | < 100
27 | CCOC(=O)c1cc2ccc(OCc3cccc(F)c3)cc2nc1C [Example 21, Ethyl 7-((3-fluorobenzyl)oxy)-2-methylquinoline-3-carboxylate] | < 100
28 | CC(C)(O)c1cnc2cc(OCc3cccc(Cl)c3)cnc2c1 [Example 79, 2-{7-[(3-Chlorophenyl)methoxy]-1,5-naphthyridin-3-yl}propan-2-ol] | < 100
29 | NC(=O)c1cnc2cc(OCc3cccc(F)c3)cnc2c1 [Example 67, 7-[(3-Fluorophenyl)methoxy]-1,5-naphthyridine-3-carboxamide] | < 100
30 | NC(=O)Cc1cnc2cc(OCc3cccc(F)c3)ccc2c1 [Example 57, 2-(7-((3-Fluorobenzyl)oxy)quinolin-3-yl)acetamide] | < 100
31 | CCOC(=O)c1cnc2cc(OCc3cc(F)cc(Cl)c3)ccc2c1 [Example 19, Ethyl 7-((3-chloro-5-fluorobenzyl)oxy)quinoline-3-carboxylate] | < 100
32 | CCOC(=O)c1cnc2cc(OCc3cccc([N+](=O)[O-])c3)ccc2c1 [Example 18, Ethyl 7-((3-nitrobenzyl)oxy)quinoline-3-carboxylate] | < 100
33 | CC(C)(O)c1cnc2cc(OCc3ccc(F)cc3)cnc2c1 [Example 65, 2-{7-[(4-Fluorophenyl)methoxy]-1,5-naphthyridin-3-yl}propan-2-ol] | < 100
34 | NCCNC(=O)c1cnc2cc(OCc3cccc(Cl)c3)ccc2c1 [Example 47, N-(2-Aminoethyl)-7-((3-chlorobenzyl)oxy)quinoline-3-carboxamide] | < 100
35 | CCOC(=O)Cc1cnc2cc(OCc3cccc(F)c3)ccc2c1 [Example 52, Ethyl 2-(7-((3-fluorobenzyl)oxy)quinolin-3-yl)acetate] | 1000 to 10000
36 | CCOC(=O)c1cnc2cc(OCc3ccc(C(F)(F)F)cc3)ccc2c1 [Example 6, Ethyl 7-((4-(trifluoromethyl)benzyl)oxy)quinoline-3-carboxylate] | 100 to 1000
37 | CC(C)(O)c1cc2ccc(OCc3ccc(F)cc3)cc2[n+]([O-])c1 [Example 66, 7-[(4-Fluorophenyl)methoxy]-3-(2-hydroxypropan-2-yl)quinolin-1-ium-1-olate] | 100 to 1000
38 | CCOC(=O)c1cnc2cc(OCCc3cccc(F)c3)ccc2c1 [Example 24, Ethyl 7-(3-fluorophenethoxy)quinoline-3-carboxylate] | < 100
39 | NC(=O)Cc1cnc2cc(OCc3ccc(F)c(F)c3)cnc2c1 [Example 80, 2-(7-((3,4-Difluorobenzyl)oxy)-1,5-naphthyridin-3-yl)acetamide] | < 100
40 | CC(C)(O)c1cnc2cc(OCc3ccc(F)c(F)c3)cnc2c1 [Example 77, 2-{7-[(3,4-Difluorophenyl)methoxy]-1,5-naphthyridin-3-yl}propan-2-ol] | < 100
41 | CC(C)(O)c1cnc2cc(OCc3cccc(Cl)c3)ccc2c1 [Example 28, 2-(7-((3-Chlorobenzyl)oxy)quinolin-3-yl)propan-2-ol] | < 100
42 | OCc1cnc2cc(OCc3cccc(Cl)c3)ccc2c1 [Example 35, (7-((3-Chlorobenzyl)oxy)quinolin-3-yl)methanol] | < 100
43 | CCOC(=O)c1cnc2cc(OCc3ccc([N+](=O)[O-])cc3)ccc2c1 [Example 11, Ethyl 7-((4-nitrobenzyl)oxy)quinoline-3-carboxylate] | 100 to 1000
